Measured values reported in patent US8920775B2, “Loading technique for preparing radionuclide containing nanoparticles” (Technical University of Denmark, priority 2009, dated 2014).

Tests used:
[1] = ITC: ligand exchange of Cu(II) between 2HQ and chelates (Examples III, Table 2)
Experimental: Isothermal titration calorimetry (ITC) measurements were used to obtain the equilibrium constant (K, also referred to as the exchange constant) of the ligand exchange between the ionophore and the agent-entrapping compound, here a chelator. […] The ligand exchange was monitored by the heat of reaction from each injection in the ITC experiment as determined by peak integration. The ligand exchange constant (K) was determined by fitting the heat of reaction. The binding isotherm is defined by the equilibrium: Cu(2HQ)2+chelate ? Cu(chelate)+2(2HQ) (1)
The ITC measurements were carried out at 25° C. and 50° C. using isothermal titration calorimetry (iTC200, Micro-Cal, GE). The instrument was electrically calibrated by means of a standard electric pulse as recommended by the manufacturer. A 40 μL syringe was used for the titration, mixing was effected by stirring the syringe at 1000 rpm during equilibration and experiments. Typically, 20 injections of 2 μL each were performed with a 150 s interval between injections in a single titration. The reference cell of the calorimeter filled with water acts as a thermal reference to the sample cell. […] All solutions were degassed before titrations to reduce noise.
The ligand exchange constant (K) and the ligand exchange enthalpy (ΔH) are determined by as fitting parameters using a binding isotherm based on reaction scheme (1).

[2] = ITC: extraction of Cu(II) from 2-hydroxyquinoline by DOTA (Examples I); format: binding; conditions: Milli-Q water pH 7.4, 25° C.
Experimental: Isothermal titration calorimetry (ITC) measurements are designed to obtain primarily the enthalpy of each complex formation and their stoichiometries. The heats of each reaction are determined by integration of the peaks observed. After the contribution from the heat of dilution of each injection is subtracted, the heat is plotted against the molar ratio of the measured components. The binding constant (Ka, interchangeably referred to as the ligand exchange constant, K), enthalpy of binding) (ΔH^0), and stoichiometry (n) of the formation of complex are determined by fitting the binding isotherm against the binding equation using an independent binding model.
The exchange of 2-hydroxyquinoline with DOTA are shown as heat spike plots (A) and integrated heat plots (B). Experimental conditions: 0.5 mM Cu(2-hydroxyquinoine)2 is titrated with 10-μL injections of 5 mM DOTA. All solutions were prepared in Milli-Q water at pH=7.4.

[3] = ITC: ligand exchange of 2HQ with DOTA complexed to Cu(II) (Examples II); format: binding
[4] = In vivo PET/CT biodistribution and blood concentration-time profile; design: species or system NMRI nude mice; conditions: i.v., mice, PET ROI on left ventricle
Experimental: Human colon adenocarcinoma (HT29) tumor cells (2×10^6 cells) were inoculated in the left and right flank of female NMRI (Naval Medical Research Institute) nude mice and allowed to grow 4 weeks in the mice to establish the malignant solid tumor. ^64Cu-liposomes for in vivo studies were prepared as described above and consisted of DSPC/CHOL/DSPE-PEG-2000 in the molar ratio 55:40:5 and contained the chelating agent (DOTA) in a concentration of 10 mM, and at a pH of 4.0 in the interior of the liposomes. […]
After i.v. administration of ^64Cu-liposome or ^64Cu-DOTA the animals were subject to micro-PET/CT imaging at different time points: 1, 4, 12 and 24 h. With PET imaging the amount of radioactivity specifically sequestered in a region of interest (ROI) on an image can be calculated allowing direct quantitative determinations based on differences in signal intensity. After PET- and CT images were reconstructed the images were fused with Inveon Software (Siemens), and PET data were analyzed by defining ROIs on selected tissues. PET values are expressed as mean Becquerel ml^−1 (Bq ml^−1), and ROIs were drawn manually over each organ of interest. […]
FIG. 11 is a time-activity curve (TAC) illustrating the blood concentration-time pro-file of ^64Cu-liposome and ^64Cu-DOTA. […] The total injected activity dose was measured by drawing one ROI around the animal 4 min post-injection. […]

Row | Compound | Ligand exchange constant (K), exchange of Cu(II) from 2HQ to chelate ([1]; pH 4.0 at 25° C.) | ligand exchange enthalpy (ΔH) ([1]; pH 4.0 at 25° C.) [kcal/mol] | Ligand exchange constant (K), exchange of Cu(II) from 2HQ to chelate ([1]; pH 5.9 at 25° C.) | ligand exchange enthalpy (ΔH) ([1]; pH 5.9 at 25° C.) | Ligand exchange constant (K), exchange of Cu(II) from 2HQ to chelate ([1]; pH 5.9 at 50° C.) | ligand exchange enthalpy (ΔH) ([1]; pH 5.9 at 50° C.) [kcal/mol] | Ligand exchange constant (K), exchange of Cu(II) from 2HQ to chelate ([1]; pH 4.0 at 50° C.) | ligand exchange enthalpy (ΔH) ([1]; pH 4.0 at 50° C.) [kcal/mol] | binding affinity to Cu(II) compared with 2-hydroxyquinoline [2] | exchange constant, K (Cu(2HQ)2 + DOTA) ([3]; acetate buffer at pH 4.0, 25° C.) | exchange constant, K (Cu(2HQ)2 + DOTA) ([3]; pH 5.9 in MES buffer, 25° C.) | blood clearance [4]
1 | O=C(O)CN1CCCN(CC(=O)O)CCN(CC(=O)O)CCCN(CC(=O)O)CC1 [TETA, 1,4,8,11-tetraazacyclotetradecane-1,4,8,11-tetraacetic acid] | 1.2 × 10^−4 | 0.5 | 3.0 × 10^−3 | -4.9 kcal/mol | 2.8 × 10^−2 | -4.7 | – | – | – | – | – | –
2 | C1CNCCNCCNCCN1 [Cyclen, 1,4,7,10-tetraazacyclododecane] | – | – | ^ | ^ | 1.4 × 10^−3 | -5.5 | – | – | – | – | – | –
3 | O=P(O)(O)CN1CCN(CP(=O)(O)O)CCN(CP(=O)(O)O)CCN(CP(=O)(O)O)CC1 [DOTP, 1,4,7,10-tetraazacyclododecane-1,4,7,10-tetra(methanephosphonic acid)] | 2.5 × 10^−3 | 2.4 | – | – | – | – | 2.9 × 10^−3 | 3.4 | – | – | – | –
4 | O=C(O)CN1CCN(CC(=O)O)CCN(CC(=O)O)CCN(CC(=O)O)CC1 [DOTA, 1,4,7,10-tetraazacyclododecane-1,4,7,10-tetraacetic acid] | 1.3 × 10^−2 | 3.8 | 6.1 × 10^−4 | -8.0 kcal/mol | 1.0 × 10^−3 | -6.3 | 8.7 × 10^−3 | 4.0 | much higher binding affinity to Cu(II) than 2-hydroxyquinoline | (1.0±0.3)·10^−2 | (5.2±1.6)·10^−4 | –
5 | O=C([O-])CN1CCN(CC(=O)[O-])CCN(CC(=O)O)CCN(CC(=O)O)CC1.[64Cu+2] [^64Cu-DOTA] | – | – | – | – | – | – | – | – | – | – | – | cleared rapidly after administration through renal filtration
